Values belong to the compound of their own block, whether it stands above or below them.
Tests used:
USP7 = USP7 (Homo sapiens (Human), UniProt Q93009); assay: DUB selectivity panel using ubiquitin-AMC; assay type: biochemical
Source text: (§1) Compounds were screened for DUB inhibitory and apoptotic activity against other deubiquitylases in a DUB selectivity panel using ubiquitin-AMC (BPS Bioscience Inc.).

USP28 = USP28 (Homo sapiens (Human), UniProt Q96RU2); assay: DUB selectivity panel using ubiquitin-AMC; assay type: biochemical
Source text: as §1

USP5 = USP5 (Homo sapiens (Human), UniProt P45974); assay: DUB selectivity panel using ubiquitin-AMC; assay type: biochemical; conditions: 5 μM compound, 500 nM Ubiquitin-AMC
Source text: as §1

USP15 = USP15 (Homo sapiens (Human), UniProt Q9Y4E8); assay: DUB selectivity panel using ubiquitin-AMC; assay type: biochemical; conditions: 5 μM compound, 500 nM Ubiquitin-AMC
Source text: as §1

USP2 = USP2 (Homo sapiens (Human), UniProt O75604); assay: DUB selectivity panel using ubiquitin-AMC; assay type: biochemical
Source text: as §1

USP4 = USP4 (Homo sapiens (Human), UniProt Q13107); assay: DUB selectivity panel using ubiquitin-AMC; assay type: biochemical; conditions: 5 μM compound, 500 nM Ubiquitin-AMC
Source text: as §1

VCPIP = VCPIP (Homo sapiens (Human), UniProt Q96JH7); assay: DUB selectivity panel using ubiquitin-AMC; assay type: biochemical; conditions: 5 μM compound, 500 nM Ubiquitin-AMC
Source text: as §1

UCH-L3 = UCH-L3 (Homo sapiens (Human), UniProt P15374); assay: DUB selectivity panel using ubiquitin-AMC; assay type: biochemical; conditions: 5 μM compound, 500 nM Ubiquitin-AMC
Source text: as §1

USP10 = USP10 (Homo sapiens (Human), UniProt Q14694); assay: DUB selectivity panel using ubiquitin-AMC; assay type: biochemical; conditions: 5 μM compound, 500 nM Ubiquitin-AMC
Source text: as §1

USP25 = USP25 (Homo sapiens (Human), UniProt Q9UHP3); assay: DUB selectivity panel using ubiquitin-AMC; assay type: biochemical; conditions: 5 μM compound, 500 nM Ubiquitin-AMC
Source text: as §1

CYLD = CYLD (Homo sapiens (Human), UniProt Q9NQC7); assay: DUB selectivity panel using ubiquitin-AMC; assay type: biochemical; conditions: 5 μM compound, 500 nM Ubiquitin-AMC
Source text: as §1

USP30 = USP30 (Homo sapiens (Human), UniProt Q70CQ3); assay: DUB selectivity panel using ubiquitin-AMC; assay type: biochemical; conditions: 5 μM compound, 500 nM Ubiquitin-AMC
Source text: as §1

USP13 = USP13 (Homo sapiens (Human), UniProt Q92995); assay: DUB selectivity panel using ubiquitin-AMC; assay type: biochemical; conditions: 5 μM compound, 500 nM Ubiquitin-AMC
Source text: as §1

MDA-MB-231 cells = assay: WST-1 cell viability assay; assay type: cell-based; conditions: co-treatment of 10 μM Compound 5A
Procedure: Compound Compound 9A was tested for the ability to inhibit the proliferation of Mia-Paca-2 pancreatic cancer cells. Mia-Paca-2 and MDA-MB-231 cells were seeded into the wells of a 96 well tissue culture plate in complete medium (10% fetal calf serum) and incubated overnight at 37° C./5% CO2). The medium was exchanged for fresh medium containing varying concentrations of Compound 9A and the plate was incubated for 72 hours at 37° C./5% CO2. The viability of cells at the end of this incubation was assessed with the WST-1 reagent. To 10 ml of warm (37° C.) complete medium, 1 ml WST-1 reagent was added. The medium from the wells of the plate with the Mia-Paca-2 cells was removed and replaced with 100 μL of the WST-1 reagent in complete medium. The plate was incubated at 37 37° C./5% CO2. At timed intervals the absorbance at 450 nm was determined for each well in a UVNis plate reader. For each well the slope of the plot of the absorbance 450 nm vs time was determined. The readings were normalized to that of the wells for the untreated control and a dose-response curve was plotted. A fit to the data was made from a four parameter, variable slope program (GraphPad Prism) and the IC50 was determined.
The TNBC cell line MDA-MB-231 express high levels of Mcl-1 and USP9X in addition to Bcl-2 and Bcl-xL. MDA-MB-231 cells were treated with ABT737 for 72 hours at varying concentrations and underwent western blot analysis.

PD-L1 = assay: Western blot of PD-L1 in MIA PaCa-2 cells; assay type: cell-based; conditions: 24 hours
Procedure: MIA PaCa-2 cells expressing detectable levels of PD-L1 are treated with Compound 7A at various concentrations for 24 hours, and the ensuing level of PD-L1 are determined by Western blot to decrease by about 50% after the treatment.

BT-549 = assay: ONCOLINES Profiler proliferation; assay type: cell-based, human
Source text: (§2) The compounds were profiled on an ONCOLINES™ Profiler (Netherlands Translational Research Center) assayed with 66 cancer cell lines to determine if they were capable of inhibiting the proliferation of these cancer cells.
(§3) To further evaluate potency of the compounds, they were compared with the USP9X inhibitor WP 1130 by screening both the compounds and WP1130 on a 66-cancer cell line panel ONCOLINES™ Profiler.

Hs 57BT = assay: ONCOLINES Profiler proliferation; assay type: cell-based; conditions: for IC50: Hs 57BT (Hs578T), breast carcinoma
Source text: as §2, §3

H82 = assay: ONCOLINES Profiler proliferation; assay type: cell-based
Source text: as §2, §3

MOLT-4 = assay: ONCOLINES Profiler proliferation; assay type: cell-based
Source text: as §2, §3

RPMI-7951 = assay: ONCOLINES Profiler proliferation; assay type: cell-based
Source text: as §2, §3

CCRF-CEM = assay: ONCOLINES Profiler proliferation; assay type: cell-based; conditions: for IC50: acute lymphoblastic leukemia
Source text: as §2, §3

DU 145 = assay: ONCOLINES Profiler proliferation; assay type: cell-based
Source text: as §2, §3

A-172 = assay: ONCOLINES Profiler proliferation; assay type: cell-based
Source text: as §2, §3

BT-20 = assay: ONCOLINES Profiler proliferation; assay type: cell-based
Source text: as §2, §3

[1] = 5 μM compound, 500 nM Ubiquitin-AMC

Chain of USP7 (Q93009 whole entry): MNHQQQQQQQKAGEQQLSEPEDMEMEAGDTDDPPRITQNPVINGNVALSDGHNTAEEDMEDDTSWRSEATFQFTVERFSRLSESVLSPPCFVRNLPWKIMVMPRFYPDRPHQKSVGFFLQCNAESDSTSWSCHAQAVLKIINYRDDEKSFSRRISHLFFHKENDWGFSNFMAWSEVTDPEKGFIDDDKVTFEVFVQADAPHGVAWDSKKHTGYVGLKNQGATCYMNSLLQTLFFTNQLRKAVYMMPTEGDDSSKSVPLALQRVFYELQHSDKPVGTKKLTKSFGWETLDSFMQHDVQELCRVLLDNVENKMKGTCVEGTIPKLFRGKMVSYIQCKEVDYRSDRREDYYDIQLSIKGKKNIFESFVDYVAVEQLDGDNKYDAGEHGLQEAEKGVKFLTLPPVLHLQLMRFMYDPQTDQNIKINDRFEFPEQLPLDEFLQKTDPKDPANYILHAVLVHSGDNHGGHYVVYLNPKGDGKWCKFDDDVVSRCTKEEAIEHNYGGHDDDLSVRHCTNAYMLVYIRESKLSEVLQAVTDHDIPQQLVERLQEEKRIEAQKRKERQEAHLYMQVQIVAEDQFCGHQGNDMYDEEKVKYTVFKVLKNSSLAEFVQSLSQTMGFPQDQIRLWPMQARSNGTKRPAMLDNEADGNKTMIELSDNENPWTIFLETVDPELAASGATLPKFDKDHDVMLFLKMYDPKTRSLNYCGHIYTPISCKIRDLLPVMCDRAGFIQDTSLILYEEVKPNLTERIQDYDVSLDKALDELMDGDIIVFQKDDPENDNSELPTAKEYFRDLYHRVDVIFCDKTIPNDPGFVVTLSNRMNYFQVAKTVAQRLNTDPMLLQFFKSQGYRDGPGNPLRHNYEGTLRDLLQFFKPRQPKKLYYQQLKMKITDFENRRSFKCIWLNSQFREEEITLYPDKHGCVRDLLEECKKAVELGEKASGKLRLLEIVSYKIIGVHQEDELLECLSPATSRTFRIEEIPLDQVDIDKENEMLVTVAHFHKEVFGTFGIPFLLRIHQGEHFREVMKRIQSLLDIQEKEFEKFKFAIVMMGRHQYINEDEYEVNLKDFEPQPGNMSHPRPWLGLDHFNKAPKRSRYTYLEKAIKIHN
Chain of USP2 (O75604 whole entry): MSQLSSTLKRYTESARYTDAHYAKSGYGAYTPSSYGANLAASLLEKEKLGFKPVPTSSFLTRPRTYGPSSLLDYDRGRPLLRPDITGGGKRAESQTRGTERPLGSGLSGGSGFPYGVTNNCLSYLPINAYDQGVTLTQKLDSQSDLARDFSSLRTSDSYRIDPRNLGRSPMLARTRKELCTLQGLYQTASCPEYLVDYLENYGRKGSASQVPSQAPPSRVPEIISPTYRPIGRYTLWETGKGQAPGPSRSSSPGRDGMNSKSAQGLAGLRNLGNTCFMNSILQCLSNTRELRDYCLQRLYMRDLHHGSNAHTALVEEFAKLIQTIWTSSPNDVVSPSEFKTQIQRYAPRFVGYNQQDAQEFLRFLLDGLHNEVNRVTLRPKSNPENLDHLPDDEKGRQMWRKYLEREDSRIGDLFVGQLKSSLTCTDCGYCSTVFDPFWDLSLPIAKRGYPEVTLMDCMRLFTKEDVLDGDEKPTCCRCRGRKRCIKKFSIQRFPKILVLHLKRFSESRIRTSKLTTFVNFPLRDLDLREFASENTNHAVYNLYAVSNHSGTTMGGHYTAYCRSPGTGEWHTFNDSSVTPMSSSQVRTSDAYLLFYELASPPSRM
Chain of USP13 (Q92995 whole entry): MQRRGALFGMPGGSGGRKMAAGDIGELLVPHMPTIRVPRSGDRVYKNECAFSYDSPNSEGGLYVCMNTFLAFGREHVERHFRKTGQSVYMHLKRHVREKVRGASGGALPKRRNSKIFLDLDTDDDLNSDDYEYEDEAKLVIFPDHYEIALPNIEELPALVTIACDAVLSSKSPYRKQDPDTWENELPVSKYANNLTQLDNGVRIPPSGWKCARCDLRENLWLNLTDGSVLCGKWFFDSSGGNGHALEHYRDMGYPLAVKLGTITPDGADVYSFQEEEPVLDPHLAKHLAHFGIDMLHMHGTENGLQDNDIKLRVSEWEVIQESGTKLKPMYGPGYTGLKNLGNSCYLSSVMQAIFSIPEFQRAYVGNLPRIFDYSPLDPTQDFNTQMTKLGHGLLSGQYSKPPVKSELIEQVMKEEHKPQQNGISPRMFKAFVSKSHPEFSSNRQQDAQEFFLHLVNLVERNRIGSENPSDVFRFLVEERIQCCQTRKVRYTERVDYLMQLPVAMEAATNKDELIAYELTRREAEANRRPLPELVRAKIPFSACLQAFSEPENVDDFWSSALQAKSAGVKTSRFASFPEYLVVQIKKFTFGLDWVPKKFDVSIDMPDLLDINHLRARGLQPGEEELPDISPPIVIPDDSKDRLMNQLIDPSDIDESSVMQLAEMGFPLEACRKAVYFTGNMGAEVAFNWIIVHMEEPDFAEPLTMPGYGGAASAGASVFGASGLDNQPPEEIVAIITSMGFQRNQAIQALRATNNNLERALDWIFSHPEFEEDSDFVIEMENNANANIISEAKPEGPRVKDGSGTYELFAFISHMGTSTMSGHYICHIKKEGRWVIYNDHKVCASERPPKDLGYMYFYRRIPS
Chain of USP25 (Q9UHP3 whole entry): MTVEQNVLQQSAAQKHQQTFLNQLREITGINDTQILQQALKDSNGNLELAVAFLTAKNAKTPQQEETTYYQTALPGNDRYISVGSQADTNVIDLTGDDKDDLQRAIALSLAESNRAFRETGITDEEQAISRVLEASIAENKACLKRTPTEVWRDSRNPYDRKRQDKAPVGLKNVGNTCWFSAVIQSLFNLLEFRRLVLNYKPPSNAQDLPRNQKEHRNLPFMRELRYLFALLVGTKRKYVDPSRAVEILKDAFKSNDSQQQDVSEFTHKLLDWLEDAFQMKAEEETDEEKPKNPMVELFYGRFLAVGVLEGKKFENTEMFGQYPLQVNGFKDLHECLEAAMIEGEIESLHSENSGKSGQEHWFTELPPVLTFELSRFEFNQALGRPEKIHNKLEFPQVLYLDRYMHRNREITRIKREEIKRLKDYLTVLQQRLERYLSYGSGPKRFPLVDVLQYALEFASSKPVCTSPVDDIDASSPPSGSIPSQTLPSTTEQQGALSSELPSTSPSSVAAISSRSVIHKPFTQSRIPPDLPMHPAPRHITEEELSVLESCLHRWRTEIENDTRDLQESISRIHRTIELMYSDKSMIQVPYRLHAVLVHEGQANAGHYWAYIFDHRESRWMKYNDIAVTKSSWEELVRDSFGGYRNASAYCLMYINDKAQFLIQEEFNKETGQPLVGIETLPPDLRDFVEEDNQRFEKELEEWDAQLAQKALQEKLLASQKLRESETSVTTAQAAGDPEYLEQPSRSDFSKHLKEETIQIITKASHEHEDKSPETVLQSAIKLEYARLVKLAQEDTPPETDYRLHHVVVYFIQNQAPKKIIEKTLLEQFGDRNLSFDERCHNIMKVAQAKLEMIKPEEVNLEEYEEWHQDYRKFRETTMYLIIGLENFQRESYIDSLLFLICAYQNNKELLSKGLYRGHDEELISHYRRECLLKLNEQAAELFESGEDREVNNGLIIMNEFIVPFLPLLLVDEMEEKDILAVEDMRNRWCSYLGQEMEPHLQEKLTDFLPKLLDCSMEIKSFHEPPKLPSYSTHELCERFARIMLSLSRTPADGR
Chain of USP5 (P45974 whole entry): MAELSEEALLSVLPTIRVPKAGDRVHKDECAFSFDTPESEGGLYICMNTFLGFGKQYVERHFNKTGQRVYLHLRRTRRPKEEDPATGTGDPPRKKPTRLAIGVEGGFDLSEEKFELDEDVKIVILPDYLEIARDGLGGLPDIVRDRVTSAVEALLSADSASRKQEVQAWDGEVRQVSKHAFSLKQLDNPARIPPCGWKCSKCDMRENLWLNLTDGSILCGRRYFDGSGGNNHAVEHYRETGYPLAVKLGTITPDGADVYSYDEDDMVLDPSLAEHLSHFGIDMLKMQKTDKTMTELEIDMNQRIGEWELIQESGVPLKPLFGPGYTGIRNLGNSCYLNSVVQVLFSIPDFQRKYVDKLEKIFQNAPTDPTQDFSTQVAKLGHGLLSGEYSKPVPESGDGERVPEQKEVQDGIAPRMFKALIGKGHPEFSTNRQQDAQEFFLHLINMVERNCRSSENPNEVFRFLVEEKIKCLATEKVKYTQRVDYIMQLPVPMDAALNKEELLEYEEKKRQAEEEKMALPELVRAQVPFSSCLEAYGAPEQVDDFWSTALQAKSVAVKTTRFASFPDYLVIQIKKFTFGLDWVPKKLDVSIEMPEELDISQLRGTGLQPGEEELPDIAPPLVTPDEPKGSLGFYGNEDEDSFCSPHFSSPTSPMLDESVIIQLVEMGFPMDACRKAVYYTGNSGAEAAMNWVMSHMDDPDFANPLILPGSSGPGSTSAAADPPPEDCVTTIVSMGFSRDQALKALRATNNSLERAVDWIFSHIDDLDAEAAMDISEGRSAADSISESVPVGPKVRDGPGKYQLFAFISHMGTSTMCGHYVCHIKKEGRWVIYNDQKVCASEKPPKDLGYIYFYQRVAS
Chain of UCH-L3 (P15374 whole entry): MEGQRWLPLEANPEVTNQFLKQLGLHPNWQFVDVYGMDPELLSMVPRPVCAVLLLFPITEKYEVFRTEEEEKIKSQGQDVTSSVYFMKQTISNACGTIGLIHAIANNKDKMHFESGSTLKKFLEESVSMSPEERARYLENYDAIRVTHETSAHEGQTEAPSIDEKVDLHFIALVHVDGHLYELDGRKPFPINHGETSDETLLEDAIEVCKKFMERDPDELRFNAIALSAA

IC50 (USP7): > 50 µM
inhibition at 5 µM (USP7; [1]): 0%
inhibition of USP7 (USP7; [1]): no detectable effect
IC50 (USP28): 15 µM
inhibition at 5 µM (USP5): 0%
inhibition of USP5 (USP5): no detectable effect
inhibition at 5 µM (USP15): < 2%
IC50 (USP2): > 50 µM
inhibition at 5 µM (USP2; [1]): 0%
inhibition of USP2 (USP2; [1]): no detectable effect
inhibition at 5 µM (USP4): 0%
inhibition of USP4 (USP4): no detectable effect
inhibition at 5 µM (VCPIP): < 3%
inhibition at 5 µM (UCH-L3): 0%
inhibition of UCH-L3 (UCH-L3): no detectable effect
inhibition at 5 µM (USP10): < 1%
inhibition at 5 µM (USP25): 0%
inhibition of USP25 (USP25): no detectable effect
inhibition at 5 µM (CYLD): 0%
inhibition of CYLD (CYLD): no detectable effect
inhibition at 5 µM (USP30): < 5%
inhibition at 5 µM (USP13): 0%
inhibition of USP13 (USP13): no detectable effect
Compound: CN1CCOc2ccc(cc2)C(=O)NCc2cccc(c2)C(=O)N[C@@H](CC(C)(C)C)C(=O)Nc2ccc(cc2)CCN(C)C(=O)CC(C)(C)CC1=O [Compound 5A]
enhancement in ABT737's potency / sensitivity of cells to ABT737 (MDA-MB-231 cells): 5 fold

IC50 Ratio WP1130/Compound 7A (BT-549; BT-549): 27.0
IC50 (BT-549; BT-549, breast ductal carcinoma): 0.199 µM
IC50 (BT-549; Homo sapiens, BT-549, BT-549, breast ductal carcinoma): 0.2 µM
IC50 (MOLT-4; Homo sapiens, MOLT-4, MOLT-4, acute lymphoblastic leukemia): 0.594 µM
IC50 Ratio WP1130/Compound 7A (MOLT-4; MOLT-4): 6.8
IC50 (MOLT-4; MOLT-4, acute lymphoblastic leukemia): 0.59 µM
IC50 Ratio WP1130/Compound 7A (CCRF-CEM): 17.6
IC50 (CCRF-CEM; Homo sapiens): 0.247 µM
IC50 (CCRF-CEM): 0.25 µM
IC50 Ratio WP1130/Compound 7A (BT-20; BT-20): 3.6
IC50 (BT-20; BT-20, breast carcinoma): 1.4 µM
IC50 (BT-20; Homo sapiens, BT-20, BT-20, breast carcinoma): 1.39 µM
Compound: CN1CCOc2ccc(cc2)C(=O)NCc2ccc(F)c(c2)C(=O)N[C@@H](CC(C)(C)C)C(=O)Nc2ccc(cc2)CCN(C)C(=O)CC(C)(C)CC1=O [Compound 7A]
decrease of level of PD-L1 (PD-L1): about 50%
IC50 (Hs 57BT; Homo sapiens, Hs-578T): 1.41 µM
IC50 (Hs 57BT): 1.4 µM
IC50 Ratio WP1130/Compound 7A (Hs 57BT; Hs578T): 4.5
IC50 Ratio WP1130/Compound 7A (H82; H82): 6.0
IC50 (H82; Homo sapiens, NCI-H82, H82, small cell lung): 1.1 µM
IC50 (RPMI-7951; Homo sapiens, RPMI-7951, RPMI-7951, malignant melanoma): 1.2 µM
IC50 Ratio WP1130/Compound 7A (RPMI-7951; RPMI7951): 3.5
IC50 (RPMI-7951; RPMI-7951, malignant melanoma): 1.2 µM
IC50 Ratio WP1130/Compound 7A (DU 145; DU145): 4.8
IC50 (DU 145; DU 145, prostate carcinoma): 2 µM
IC50 (DU 145; Homo sapiens, DU-145, DU 145, prostate carcinoma): 2.01 µM
IC50 Ratio WP1130/Compound 7A (A-172; A-172): 5.1
IC50 (A-172; A-172, glioblastoma): 1.1 µM
IC50 (A-172; Homo sapiens, A 172, A-172, glioblastoma): 1.07 µM

— US20240294467A1, “USP9X Inhibitors” (ProDeg, LLC, priority 2021, published 2024)
